Laboratory results taken from patent US20080070265A1, “PEPTIDE-BASED IMMUNIZATION THERAPY FOR TREATMENT OF ATHEROSCLEROSIS” (CARDIO VAX, priority 2003, published 2008).

Tested on: apoE−/− mice
Experiment: Immunization of apoE−/− mice with peptide in Freund's adjuvant; size of atherosclerotic lesions in the proximal aorta
Format: in vivo
Details: for effect of immunization on atherosclerosis: experimental animals (apoE−/− mice)
Protocol: It was hypothesized that the induction of protective immunity could depend on presentation of peptides derived from apoB100 and modified by adduct formation during oxidative modification of the LDL particle. Further, it was hypothesized that such peptides must have a sequence that (i) contains side chains susceptible to adduct formation, and (ii) permits them to bind to MHC class II molecules. The apoB100 sequence was analyzed to identify such motifs. […] A peptide containing this sequence was synthesized and used for immunization of apoE−/− mice. The effect on atherosclerosis was quantified by measuring the size of atherosclerotic lesions after 12 weeks.
8 week old female apoE−/− mice (B6, Apoe−/−, M&B, Ry, Denmark) were immunized with 100 μg of peptide SEQ. ID. NO. 1, and SEQ. ID. NO. 2, respectively, emulsified with Freund's complete adjuvant to a total volume of 50 μl. Mice were boosted after 2 and 4 weeks with 50 μg of peptide in Freund's incomplete adjuvant. A third group of mice consisting of age-matched male mice was injected according to the same scheme with phosphate-buffered saline (PBS) in adjuvant. 4 weeks after the last boost, mice were anesthetized with carbon dioxide and killed by exsanguination after cardiac puncture. After vascular perfusion with sterile RNase-free PBS, the heart and proximal aorta were removed, embedded in OCT compound, frozen and cryosectioned.
The size of atherosclerotic lesions in the proximal aorta was quantified by using Leica Qwin software (for details of the method, see Nicoletti et al., J. Clin. Invest. (1998)) Results were expressed as μm^2 average lesion area per cross-section, as well as relative lesion area, i.e., lesion area (μm^2) divided by total aortic cross-section area (μm^2). The Mann-Whitney U test used for comparisons between means.

Substance | lesion size versus control mice injected with PBS/adjuvant alone (apoE−/− mice, FIG. 1) | lesion size versus mice immunized with peptide SEQ. ID. NO. 2 (apoE−/− mice, FIG. 1) | effect of immunization on atherosclerosis | reduction in lesion size compared to PBS controls (female apoE−/− mice, 100 μg peptide in Freund's complete adjuvant, boosts of 50 μg after 2 and 4 weeks, proximal aorta, p<0.05) | reduction in lesion size compared with peptide SEQ. ID. NO. 2 immunized mice (female apoE−/− mice, same immunization scheme, proximal aorta, p<0.001) | lesions larger than PBS controls (female apoE−/− mice, same immunization scheme, proximal aorta, p<0.05)
NH2-PTVMDFRKFSRNYQLYKSVSLPS-COOH (H-PTVMDFRKFSRNYQLYKSVSLPS-OH) [SEQ. ID. NO. 1, amino acids 625-647 of the human apoB100 protein] | significantly smaller lesions | significantly smaller | inhibition of atherosclerosis | 42% | 62% | –
NH2-YSKVHNGSEILFSYFQDLVIT-COOH (H-YSKVHNGSEILFSYFQDLVIT-OH) [SEQ. ID. NO. 2] | – | – | aggravates atherosclerosis | – | – | 36%
